Measured values published in the NIST ThermoML archive (doi:10.1021/je800012v).
Numbers after ± are expanded uncertainties.

Settings: Liquid

CCCCCl [1-chlorobutane]
mass density [kg/m3]
Settings	100 kPa	2500 kPa	5000 kPa	10000 kPa	15000 kPa	20000 kPa	25000 kPa	30000 kPa	35000 kPa
283.15 K	897.21 ± 0.17	899.51 ± 0.19	901.82 ± 0.2	906.3 ± 0.24	910.57 ± 0.26	914.69 ± 0.29	918.63 ± 0.31	922.33 ± 0.34	926.05 ± 0.36
293.15 K	886.18 ± 0.18	888.63 ± 0.2	891.13 ± 0.21	895.89 ± 0.25	–	904.73 ± 0.31	908.9 ± 0.34	912.88 ± 0.36	916.77 ± 0.38
298.15 K	880.63 ± 0.18	883.17 ± 0.2	885.72 ± 0.22	890.65 ± 0.25	895.36 ± 0.29	899.79 ± 0.32	904.09 ± 0.35	908.22 ± 0.37	912.17 ± 0.4
303.15 K	874.92 ± 0.18	877.59 ± 0.21	880.23 ± 0.22	885.43 ± 0.26	890.24 ± 0.29	894.84 ± 0.33	899.24 ± 0.36	903.46 ± 0.39	907.47 ± 0.41
313.15 K	863.82 ± 0.19	866.65 ± 0.21	869.49 ± 0.23	874.93 ± 0.27	880.07 ± 0.31	884.94 ± 0.35	889.61 ± 0.38	894.04 ± 0.41	898.33 ± 0.44
323.15 K	852.43 ± 0.2	855.47 ± 0.22	858.54 ± 0.24	864.35 ± 0.29	869.85 ± 0.33	875.03 ± 0.37	879.94 ± 0.4	884.62 ± 0.43	889.1 ± 0.46
333.15 K	840.79 ± 0.21	844.06 ± 0.23	847.37 ± 0.25	853.61 ± 0.3	859.47 ± 0.34	864.97 ± 0.38	870.17 ± 0.42	875.12 ± 0.46	879.82 ± 0.49

CCCCCC [hexane]
mass density [kg/m3]
Settings	100 kPa	2500 kPa	5000 kPa	10000 kPa	15000 kPa	20000 kPa	25000 kPa	30000 kPa	35000 kPa
283.15 K	668.07 ± 0.32	670.36 ± 0.38	672.69 ± 0.44	677.06 ± 0.56	681.19 ± 0.68	685.08 ± 0.8	688.82 ± 0.91	692.35 ± 1	695.65 ± 1.1
293.15 K	659.18 ± 0.33	661.67 ± 0.39	664.17 ± 0.45	668.87 ± 0.58	673.27 ± 0.7	677.4 ± 0.81	681.33 ± 0.93	685.07 ± 1	688.63 ± 1.1
298.15 K	654.61 ± 0.33	657.21 ± 0.4	659.81 ± 0.46	664.66 ± 0.58	669.24 ± 0.7	673.51 ± 0.82	677.56 ± 0.94	681.4 ± 1.1	685.02 ± 1.2
303.15 K	649.97 ± 0.34	652.7 ± 0.4	655.36 ± 0.46	660.53 ± 0.59	665.23 ± 0.71	669.63 ± 0.83	673.81 ± 0.95	677.77 ± 1.1	681.45 ± 1.2
313.15 K	640.82 ± 0.35	643.76 ± 0.41	646.69 ± 0.47	652.13 ± 0.6	657.16 ± 0.73	661.86 ± 0.85	666.28 ± 0.97	670.44 ± 1.1	674.41 ± 1.2
323.15 K	631.41 ± 0.35	634.61 ± 0.42	637.8 ± 0.48	643.69 ± 0.62	649.12 ± 0.74	654.14 ± 0.87	658.84 ± 0.99	663.23 ± 1.1	667.4 ± 1.2
333.15 K	621.8 ± 0.36	625.32 ± 0.43	628.77 ± 0.5	635.13 ± 0.63	640.94 ± 0.76	646.27 ± 0.89	651.23 ± 1	655.89 ± 1.1	660.3 ± 1.2
